From US20230093099A1, “COMPOUNDS AND METHODS OF TREATING CANCERS” (CULLGEN (SHANGHAI), INC., priority 2019, published 2023)
Read-outs that look alike come from different tables or passages of the source.

Assays:
Type in all cases: cell-based
GSPT1 = target: T1, GSPT1 (Homo sapiens, UniProt P15170); test: Immunoblot of GSPT1 protein level in RS4;11 cells; settings: 16 hours; for GSPT1 protein level: immunoblot (FIG. 5)
T1 construct: immunoblot of GSPT1 and tubulin expressed in RS4:11 cells; endogenous in cells; host or cells: RS4;11 cells
T1 sequence (P15170 whole entry): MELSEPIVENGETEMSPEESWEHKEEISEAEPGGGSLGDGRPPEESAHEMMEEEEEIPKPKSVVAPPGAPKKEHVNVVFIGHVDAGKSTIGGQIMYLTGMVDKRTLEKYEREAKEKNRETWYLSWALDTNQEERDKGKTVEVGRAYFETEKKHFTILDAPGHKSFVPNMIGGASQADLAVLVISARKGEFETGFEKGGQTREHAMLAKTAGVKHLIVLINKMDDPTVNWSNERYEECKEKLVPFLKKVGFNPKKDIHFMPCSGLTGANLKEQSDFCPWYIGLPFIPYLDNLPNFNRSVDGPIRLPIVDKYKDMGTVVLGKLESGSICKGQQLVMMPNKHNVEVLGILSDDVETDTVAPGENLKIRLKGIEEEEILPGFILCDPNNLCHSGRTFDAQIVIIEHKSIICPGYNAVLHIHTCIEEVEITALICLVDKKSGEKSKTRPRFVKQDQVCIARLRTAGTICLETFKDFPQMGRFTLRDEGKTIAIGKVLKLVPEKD
Procedure: RS4;11 cells were treated with compounds at indicated concentrations for 16 hours. […] The concentrations required to reduce GSPT1 by 50% (DC50) were below 2 nM for compound JA-189 and 10 nM JA213.
(§1) HEL, RS4;11, MV4;11, Kasumi-1 and other cells were cultured at 37° C. with 5% CO2 in RPMI 1640 or DMEM Medium supplemented with 10% fetal bovine serum. Cells were authenticated using the short tandem repeat (STR) assays. Mycoplasma test results were negative.
(§2) Rabbit anti-JAK1 antibody (3344S), anti-JAK2 antibody (3230S), anti-JAK3 antibody (8827S), anti-TYK2 antibody (14193S), anti-FLT3 antibody (3462S), anti-RET antibody (14556S), anti-phospho-STAT3 (Tyr705) antibody (9145S) and anti-phospho-STAT5 (Tyr694) antibody (4322S) were purchased from Cell Signaling Technology. Rabbit anti-GSPT1 antibody (ab126090) was purchased from Abcam. HRP-conjugated anti-α-tubulin antibody was produced in house. Media and other cell culture reagents were purchased from Thermo Fisher. The CellTiter-Glo Luminescent Assay kit was purchased from Promega.
(§3) Cultured cells were washed with cold PBS once and lysed in cold RIPA buffer supplemented with protease inhibitors and phosphatase inhibitors (Beyotime Biotechnology). The solutions were then incubated at 4° C. for 30 minutes with gentle agitation to fully lyse cells. Cell lysates were centrifuged at 13,000 rpm for 10 minutes at 4° C. and pellets were discarded. Total protein concentrations in the lysates were determined by BCA assays (Beyotime Biotechnology). Cell lysates were mixed with Laemmli loading buffer to 1× and heated at 99° C. for 5 min. Proteins were resolved on SDS-PAGE and visualized by chemiluminescence. Images were taken by a ChemiDoc MP Imaging system (Bio-Rad). Protein bands were quantitated using the accompanied software provided by Bio-Rad.

RS4;11 cells = test: Cell viability assay (CellTiter-Glo) in RS4;11 cells; settings: for IC50: Homo sapiens, 72 h; for cell viability inhibition in combination with pomalidomide: RS4;11, 3 days, pomalidomide at 10 μM (FIG. 4)
Summary of the method: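 Three-day compound treatment of RS4;11 ALL cells (5000/well, 3-fold dilution series of 8 or 12 points), with IC50 from a nonlinear least-squares fit to CellTiter-Glo viability data.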

SU-DHL-1 cells = test: Cell viability assay (CellTiter-Glo) in SU-DHL-1 cells; settings: Homo sapiens, 72 h, SU-DHL-1, large cell lymphoma, 3 days
Procedure: (§4) MV4;11, RS4;11, Kasumi-1, HEL and other cells were treated with NVP-BSK805, TG101209 or selected degraders for 3 days at indicated concentrations following a 3-fold serial dilution.
as §1
(§5) Cells were seeded at a density of 5000 cells per well in 96-well assay plates and treated with test compounds following a 8-point or 12-point 3-fold serial dilution. Three days later, cell viability was determined using the CellTiter-Glo assay kit according to the manufacturer's instructions. The dose-response curves were determined and IC50 values were calculated using the GraphPad Prism software following a nonlinear regression (least squares fit) method.

JAK1 = target: T2, JAK1 (Homo sapiens, UniProt P23458); test: Immunoblot of JAK1 protein level in RS4;11 cells; settings: 24 hours; for JAK1 protein level: immunoblot (FIG. 2)
T2 construct: immunoblot of JAK1/3 proteins expressed in RS4;11 cells; endogenous in cells; host or cells: RS4;11 cells
T2 sequence (P23458 whole entry): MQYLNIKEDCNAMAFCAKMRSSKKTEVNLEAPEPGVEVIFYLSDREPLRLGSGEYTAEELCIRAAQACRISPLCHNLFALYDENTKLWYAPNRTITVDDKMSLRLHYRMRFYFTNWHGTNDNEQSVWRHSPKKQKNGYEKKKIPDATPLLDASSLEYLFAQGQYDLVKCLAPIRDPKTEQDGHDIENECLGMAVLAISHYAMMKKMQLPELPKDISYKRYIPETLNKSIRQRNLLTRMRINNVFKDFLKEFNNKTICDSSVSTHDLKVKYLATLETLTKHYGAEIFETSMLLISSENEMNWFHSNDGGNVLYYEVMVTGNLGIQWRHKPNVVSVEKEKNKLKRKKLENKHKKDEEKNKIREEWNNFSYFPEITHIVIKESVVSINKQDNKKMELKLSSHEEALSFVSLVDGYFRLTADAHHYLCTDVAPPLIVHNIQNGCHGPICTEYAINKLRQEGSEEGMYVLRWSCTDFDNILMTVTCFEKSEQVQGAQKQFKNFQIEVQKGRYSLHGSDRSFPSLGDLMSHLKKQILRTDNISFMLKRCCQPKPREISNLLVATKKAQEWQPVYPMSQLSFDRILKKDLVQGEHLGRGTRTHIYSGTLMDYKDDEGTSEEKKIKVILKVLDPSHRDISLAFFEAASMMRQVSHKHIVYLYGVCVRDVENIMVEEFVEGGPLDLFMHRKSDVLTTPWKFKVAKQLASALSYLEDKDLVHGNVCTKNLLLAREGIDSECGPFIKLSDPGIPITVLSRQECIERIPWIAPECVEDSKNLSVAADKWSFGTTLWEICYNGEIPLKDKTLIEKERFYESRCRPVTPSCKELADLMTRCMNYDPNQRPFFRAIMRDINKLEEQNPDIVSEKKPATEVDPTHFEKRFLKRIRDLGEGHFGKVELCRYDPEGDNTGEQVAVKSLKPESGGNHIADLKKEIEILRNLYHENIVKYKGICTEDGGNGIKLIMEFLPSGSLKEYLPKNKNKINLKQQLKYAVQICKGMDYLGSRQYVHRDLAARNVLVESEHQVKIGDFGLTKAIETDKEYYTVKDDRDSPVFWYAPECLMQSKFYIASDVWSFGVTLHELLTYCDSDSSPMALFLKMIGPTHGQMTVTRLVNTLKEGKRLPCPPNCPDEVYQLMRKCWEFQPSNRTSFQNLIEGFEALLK
Procedure: RS4;11 cells were treated with compounds at indicated concentrations for 24 hours. […] The concentrations required to reduce JAK1 by 50% (DC50) were below 5 nM and 35 nM for compound JA-189 and JA213, respectively.
as §1, §2, §3

JAK3 = target: T3, JAK3 (Homo sapiens, UniProt P52333); test: Immunoblot of JAK3 protein level in HEL cells; settings: immunoblot (FIG. 1)
T3 construct: immunoblot of JAK1/2/3 proteins expressed in HEL cells; endogenous in cells; host or cells: HEL cells
T3 sequence (P52333 1-1124): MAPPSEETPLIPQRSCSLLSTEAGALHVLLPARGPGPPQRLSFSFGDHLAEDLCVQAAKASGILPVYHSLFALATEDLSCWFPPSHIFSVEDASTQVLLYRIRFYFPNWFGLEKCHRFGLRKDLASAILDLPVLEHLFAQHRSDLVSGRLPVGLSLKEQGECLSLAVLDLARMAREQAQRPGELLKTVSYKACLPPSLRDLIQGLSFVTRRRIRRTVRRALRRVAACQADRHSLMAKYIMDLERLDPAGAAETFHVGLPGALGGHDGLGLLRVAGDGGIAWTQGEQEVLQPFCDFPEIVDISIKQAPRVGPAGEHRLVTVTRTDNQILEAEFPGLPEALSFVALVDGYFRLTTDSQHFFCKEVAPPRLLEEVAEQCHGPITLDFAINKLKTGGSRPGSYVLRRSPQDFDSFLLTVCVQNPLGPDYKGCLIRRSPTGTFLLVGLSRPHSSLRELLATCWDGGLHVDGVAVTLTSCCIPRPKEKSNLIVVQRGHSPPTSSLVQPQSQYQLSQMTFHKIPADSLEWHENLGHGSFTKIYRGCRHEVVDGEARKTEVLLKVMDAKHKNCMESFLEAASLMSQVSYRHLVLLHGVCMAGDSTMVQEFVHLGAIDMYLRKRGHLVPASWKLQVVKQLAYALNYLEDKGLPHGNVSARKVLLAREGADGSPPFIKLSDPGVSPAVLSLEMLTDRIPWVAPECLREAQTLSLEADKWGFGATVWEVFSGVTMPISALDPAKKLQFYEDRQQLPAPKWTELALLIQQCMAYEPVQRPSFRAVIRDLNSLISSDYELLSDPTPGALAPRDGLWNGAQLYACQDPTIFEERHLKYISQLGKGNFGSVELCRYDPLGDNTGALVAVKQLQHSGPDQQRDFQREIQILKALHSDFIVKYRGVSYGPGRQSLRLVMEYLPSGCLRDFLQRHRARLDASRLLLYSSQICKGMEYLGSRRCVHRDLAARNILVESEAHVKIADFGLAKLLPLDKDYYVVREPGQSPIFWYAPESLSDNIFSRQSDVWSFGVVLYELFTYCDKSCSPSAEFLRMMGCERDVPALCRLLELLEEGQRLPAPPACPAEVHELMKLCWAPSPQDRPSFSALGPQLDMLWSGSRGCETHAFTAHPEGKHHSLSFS
Procedure: (§6) To confirm JA-189 and JA-213 are true JAK degraders, HEL cell were treated with these two compounds at various compounds concentrations.
as §1, §2
(§7) Cultured cells were washed with cold PBS once and lysed in cold RIPA buffer supplemented with protease inhibitors and phosphatase inhibitors (Beyotime Biotechnology). […] Total protein concentrations in the lysates were determined by BCA assays (Beyotime Biotechnology). […] Protein bands were quantitated using the accompanied software provided by Bio-Rad.

Jurkat cells = test: Cell viability assay (CellTiter-Glo) in Jurkat cells; settings: Homo sapiens, 72 h, T-ALL, 3 days
Procedure: as §4, §1, §5

KM12 cells = test: Cell viability assay (CellTiter-Glo) in KM12 cells; settings: Homo sapiens, 72 h, KM12, colorectal carcinoma, 3 days
Procedure: as §4, §1, §5

p-STAT3 = test: Immunoblot of p-STAT3 (downstream signaling) in HEL cells; settings: immunoblot (FIG. 1)
Procedure: as §6, §1, §2, §7

[1] = RS4;11 ALL cells treated for three days, read-out: cell viability inhibition IC50
[2] = RS4;11 cells, cell viability, 3 days, CellTiter-Glo, read-out: IC50

Row | SMILES | GSPT1 protein level (GSPT1) | IC50 (RS4;11 cells; [1]) [µM] | IC50 (RS4;11 cells; [2]) [µM] | cell viability inhibition in combination with pomalidomide (RS4;11 cells) | IC50 (SU-DHL-1 cells) [µM] | JAK1 protein level (JAK1) | JAK3 protein level (JAK3) | IC50 (Jurkat cells) [µM] | IC50 (KM12 cells) [µM] | down stream signaling, p-STAT3 band (p-STAT3) | DC50 (GSPT1; immunoblot, read-out: concentration required to reduce GSPT1 by 50% (DC50)) [µM] | DC50 (JAK1; immunoblot, read-out: concentration required to reduce JAK1 by 50% (DC50)) [µM]
1 | CS(=O)(=O)c1ccc(-c2cccc3nc(Nc4ccc(N5CCN(CC(=O)NCCCCCCCCNc6ccc7c(c6)C(=O)N(C6CCC(=O)NC6=O)C7=O)CC5)cc4)nn23)cc1 (stereo not shown) [JA-213] | induced degradation of GSPT1 in a dose dependent manner | < 0.1 | 0.00845 | greatly reduce the potencies of the degraders | 0.319 | even better activity in reducing the JAK1 and JAK3 protein levels | able to reduce JAK1, JAK2 and JAK3 protein levels | 0.0627 | 0.679 | weaker bands of p-STAT3 and p-STAT5 |  | 
2 | O=C1CCC(N2C(=O)c3ccc(NCCCCCC(=O)N4CCC(n5cc(-c6cnc7cccc(-c8cc(F)c(CN9CCOCC9)c(F)c8)c7n6)cn5)CC4)cc3C2=O)C(=O)N1 (stereo not shown) [JA-189, 5-((6-(4-(4-(8-(3,5-difluoro-4-(morpholinomethyl)phenyl)quinoxalin-2-yl)-1H-pyrazol-1-yl)piperidin-1-yl)-6-oxohexyl)amino)-2-(2,6-dioxopiperidin-3-yl)isoindoline-1,3-dione] | induced degradation of GSPT1 in a dose dependent manner | < 0.1 | 0.00203 | greatly reduce the potencies of the degraders | 0.222 | even better activity in reducing the JAK1 and JAK3 protein levels | able to reduce JAK1, JAK2 and JAK3 protein levels | 0.0342 | 2.37 | weaker bands of p-STAT3 and p-STAT5 | < 0.002 | < 0.005
